Reference: patent publication US12552770B2, “Compounds for treating respiratory disease” (TMEM16A Limited, priority 2020, dated 2026)
pEC50: −log10 of the molar value.

Target: T1, human TMEM16A (TMEM16Aabc variant) (Homo sapiens, UniProt Q5XXA6, DEL476-501)
T1 sequence (Q5XXA6 with tags, fused parts or gaps isoform Q5XXA6-5 DEL539-564): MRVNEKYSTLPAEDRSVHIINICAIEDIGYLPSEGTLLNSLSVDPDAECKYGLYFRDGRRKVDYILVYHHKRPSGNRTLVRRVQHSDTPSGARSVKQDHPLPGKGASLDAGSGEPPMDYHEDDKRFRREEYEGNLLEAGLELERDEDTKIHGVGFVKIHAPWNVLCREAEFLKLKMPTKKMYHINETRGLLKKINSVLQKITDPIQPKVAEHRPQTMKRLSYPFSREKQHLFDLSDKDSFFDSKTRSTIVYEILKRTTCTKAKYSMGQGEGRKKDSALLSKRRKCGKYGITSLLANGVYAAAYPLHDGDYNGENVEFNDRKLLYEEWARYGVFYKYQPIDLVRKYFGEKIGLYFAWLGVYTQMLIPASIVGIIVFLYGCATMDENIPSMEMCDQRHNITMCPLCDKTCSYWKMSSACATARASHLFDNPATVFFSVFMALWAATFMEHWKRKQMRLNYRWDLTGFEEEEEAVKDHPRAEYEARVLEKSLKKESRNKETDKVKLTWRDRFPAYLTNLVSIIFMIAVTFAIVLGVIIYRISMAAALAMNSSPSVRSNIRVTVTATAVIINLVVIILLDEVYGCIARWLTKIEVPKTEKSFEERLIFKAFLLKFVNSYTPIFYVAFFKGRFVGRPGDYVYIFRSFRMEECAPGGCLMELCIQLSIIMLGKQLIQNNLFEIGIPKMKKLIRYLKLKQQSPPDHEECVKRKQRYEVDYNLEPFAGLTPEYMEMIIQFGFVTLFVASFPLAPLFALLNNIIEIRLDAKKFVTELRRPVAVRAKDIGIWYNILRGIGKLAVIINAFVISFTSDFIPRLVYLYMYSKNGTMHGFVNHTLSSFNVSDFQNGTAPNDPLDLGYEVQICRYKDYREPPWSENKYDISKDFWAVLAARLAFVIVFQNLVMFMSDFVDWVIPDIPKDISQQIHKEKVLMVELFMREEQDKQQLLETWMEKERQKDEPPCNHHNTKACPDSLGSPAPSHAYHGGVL
Experiment: Automated whole-cell patch clamp (Qpatch) TMEM16A potentiator assay in recombinant cells
Assay type: cell-based
Settings: FRT cells stably expressing human TMEM16A, intracellular calcium at EC20; for % Potentiation @ 3.33 μM Avg: 3.33 μM solution of test compound, percentage increase of baseline TMEM16A current, peak current at +70 mV; for pEC50: calculated from cumulative concentration response curve, whole-cell patch clamp
Method: Automated Whole-Cell Patch Clamp Assay to Detect TMEM16A Activity in Recombinant Cells
Cell Culture and Preparation
Fisher rat thyroid (FRT) cells stably expressing human TMEM16A (TMEM16Aabc variant; Dr Luis Galietta, Insituto Giannina, Italy) were cultured in T-75 flasks in Hams F-12 media with Coon's modification (Sigma) supplemented with 10% (v/v) foetal bovine serum, penicillin-streptomycin (10,000 U/mL/10000 μg/mL), G-418 (750 μg/mL), L-glutamine (2 mM) and sodium bicarbonate solution (7.5% v/v). At ˜90% confluence cells were harvested for experiments by detachment with a 2:1 (v/v) mixture of Detachin (BMS Biotechnology) and 0.25% (w/v) trypsin-EDTA. Cells were diluted to a density of 3.5-4.5×10^6 cells/mL with media consisting of CHO-S-SFM II (Sigma), 25 mM HEPES (Sigma) and Soy bean trypsin inhibitor (Sigma).
Whole-Cell Patch Clamp Recording
FRT-TMEM16A cells were whole-cell patch clamped using an automated planar patch clamp system (Qpatch, Sophion). Briefly, once high resistance (GOhm) seals were established between the cells and the planar recording array the patch was ruptured using suction pulses to establish the whole-cell recording configuration of the patch clamp technique. The assay employed the following solutions (all reagents Sigma):
Intracellular solution (mM): N-methyl-D-glucamine 130, CaCl2 18.2, MgCl2 1, HEPES 10, EGTA 10, BAPTA 20, Mg-ATP 2, pH 7.25, 325 mOsm with sucrose.
Extracellular solution (mM): N-methyl-D-glucamine 130, CaCl2 2, MgCl2 1, HEPES 10, pH 7.3, 320 mOsm with sucrose.
The intracellular solution buffers intracellular calcium at levels required to give ˜20% activation of the maximal TMEM16A mediated current (EC20 for calcium ions). Cells were voltage clamped at a holding potential of −70 mV and a combined voltage step (to +70 mV)/ramp (−90 my to +90 mV) was applied at 0.05 Hz. After a period of current stabilisation test compounds, solubilised in 100% (v/v) DMSO and subsequently diluted into extracellular solution, were applied to generate a cumulative concentration response curve. Each concentration of test compound was incubated for 5 minutes before addition of the next concentration. After the final concentration was tested a supramaximal concentration of either a known active positive modulator or the TMEM16A inhibitor, CaCCinhA01 (Del La Fuente et al, 2008) was added to define the upper and lower limits of the assay.
Compound activity was quantified by measuring the increase in current upon compound addition and expressing this as a percentage increase of baseline TMEM16A current level. Percentage increases in current were determined for each concentration and the data plotted as a function of concentration using either the Qpatch software or Graphpad Prism v6.05 providing the concentration which gave 50% of its maximal effect (EC50) and maximum efficacy (percentage of baseline increase).
In FIG. 1, IBL equals baseline current, I[#1] equals the peak current during test compound concentration 1 incubation period and so on.
Peak TMEM16A current at +70 mV was plotted as a function of time over the assay period. Baseline current (IBL) was measured after a period of stabilisation. The increase in current for each compound addition was determined by taking the peak current during the incubation period and subtracting the current from the previous recording period and then expressing this as a percentage of the baseline current. For test compound concentration 1 in FIG. 1 this is:
For each additional concentration tested the increase in current was determined by subtracting the current from the previous incubation period and normalising the baseline value—for test concentration 2 in FIG. 1 this is:
The values for each test concentration were plotted as a cumulative function of concentration e.g. for test concentration two this would be the sum of the peak changes measured during concentration one plus concentration two.

| SMILES | % Potentiation @ 3.33 μM Avg | pEC50 |
| --- | --- | --- |
| Cc1noc(C)c1-c1cccc(Cc2nc3ccc(NC(=O)CC45CC6CC(CC(C6)C4)C5)cc3[nH]2)c1 [Example 7, 2-(1-Adamantyl)-N-[2-[[3-(3,5-dimethylisoxazol-4-yl)phenyl]methyl]-3H-benzimidazol-5-yl]acetamide] | 136.5% | 5.80 |
| O=C(NCC1CCCCCC1)c1ccc2[nH]c(Cc3ccccc3)nc2c1 [Example 24.2, 2-Benzyl-N-(cycloheptylmethyl)-1H-benzimidazole-5-carboxamide] | 137% | 6.92 |
| O=C(CC1C2CC3CC(C2)CC1C3)Nc1ccc2[nH]c(Cc3ccccc3)nc2c1 (stereo not shown) [Example 2, 2-(2-Adamantyl)-N-(2-benzyl-1H-benzimidazol-5-yl)acetamide] | 183.6% | 6.57 |
| O=C(CC1C2CC3CC(C2)CC1C3)Nc1ccc2[nH]c(Cc3ccc(O)cc3)nc2c1 (stereo not shown) [Example 5.1, 2-(2-Adamantyl)-N-[2-[(4-hydroxyphenyl)methyl]-1H-benzimidazol-5-yl]acetamide] | 165.9% | 6.22 |
| COC(c1ccccc1)c1nc2cc(NC(=O)CC3C4CC5CC(C4)CC3C5)ccc2[nH]1 (stereo not shown) [Example 2.2, 2-(2-Adamantyl)-N-[2-[methoxy(phenyl)methyl]-1H-benzimidazol-5-yl]acetamide] | 194.2% | 6.19 |
| O=C(NCC1CCCCCC1)c1ccc2[nH]c(Cc3c(O)cccc3F)nc2c1 [Example 25, N-(Cycloheptylmethyl)-2-[(2-fluoro-6-hydroxy-phenyl)methyl]-1H-benzimidazole-5-carboxamide] | 57% | 7.44 |
| CC(C)c1nc2cc(NC(=O)CC3CCCCC3)ccc2o1 [Example 12, 2-Cyclohexyl-N-(2-isopropyl-1,3-benzoxazol-5-yl)acetamide] | 44.6% | 5.48 |
| O=C(CC1C2CC3CC(C2)CC1C3)Nc1ccc2[nH]c(OC3CCOC3)nc2c1 (stereo not shown) [Example 9, 2-(2-Adamantyl)-N-(2-tetrahydrofuran-3-yloxy-1H-benzimidazol-5-yl)acetamide] | 87.4% | 6.08 |
